Source: US20080090805A1, “CB-1 MODULATING COMPOUNDS AND THEIR USE” (ACADIA PHARMACEUTICALS INC., priority 2005, published 2008)

Tests used:
[1] = Clearance study, liver microsomes (mice); details: mouse, pH 7.4
[2] = Clearance study, liver microsomes (human); details: pH 7.4
[3] = Clearance study, liver microsomes (rats); details: rat, pH 7.4

Q: Which microsomal CLint at 1 μM [1] does the source give for CCCCNC(=O)c1ccc2c(c1)N=C(c1ccc(Cl)cc1)c1ccccc1S2 [drawing 1661] here?
A: Its microsomal CLint at 1 μM is 99 µL/min/mg.

Q: What does the source list for O=C(NCc1ccccc1)c1ccc2c(c1)N=C(c1cccc(Cl)c1)c1ccccc1S2 [drawing 1767]?
A: microsomal CLint at 1 μM [1]: 205 µL/min/mg; microsomal CLint at 1 μM [2]: 23 µL/min/mg; microsomal CLint at 1 μM [3]: 85 µL/min/mg

Q: Which microsomal CLint at 1 μM [1] does the source give for O=C(NCc1ccc(F)cc1)c1ccc2c(c1)N=C(c1ccc(Cl)cc1)c1ccccc1[S+]2[O-] (stereo not drawn) [drawing 1772] here?
A: The microsomal CLint at 1 μM was 37 µL/min/mg.

Q: And the microsomal CLint at 1 μM [2]?
A: The microsomal CLint at 1 μM was 11 µL/min/mg.

Q: And the microsomal CLint at 1 μM [3]?
A: The microsomal CLint at 1 μM was 31 µL/min/mg.

Q: For O=C(NC1CCCCC1)c1ccc2c(c1)N=C(c1cccc(Cl)c1)c1ccccc1S2 [drawing 1675], which microsomal CLint at 1 μM [1] is on record?
A: The microsomal CLint at 1 μM was 58 µL/min/mg.

Q: And the microsomal CLint at 1 μM [2]?
A: The microsomal CLint at 1 μM was 12 µL/min/mg.

Q: What about the microsomal CLint at 1 μM [3] of the same molecule?
A: Its microsomal CLint at 1 μM is 48 µL/min/mg.

Q: With CCCCNC(=O)c1ccc2c(c1)N=C(c1ccc(Cl)cc1)c1ccccc1[S+]2[O-] (stereo not drawn) [drawing 1736] as the molecule, how does the microsomal CLint at 1 μM [1] read?
A: The microsomal CLint at 1 μM was 53 µL/min/mg.

Q: And the microsomal CLint at 1 μM [2]?
A: The microsomal CLint at 1 μM was 31 µL/min/mg.

Q: What about the microsomal CLint at 1 μM [3] of the same molecule?
A: Its microsomal CLint at 1 μM is 41 µL/min/mg.

Q: Which microsomal CLint at 1 μM [1] does the source give for O=C(NCc1ccco1)c1ccc2c(c1)N=C(c1ccc(Cl)cc1)c1ccccc1S2 [drawing 1803] here?
A: The microsomal CLint at 1 μM was 97 µL/min/mg.

Q: What about the microsomal CLint at 1 μM [2] of the same molecule?
A: Its microsomal CLint at 1 μM is 29 µL/min/mg.

Q: What about the microsomal CLint at 1 μM [3] of the same molecule?
A: The microsomal CLint at 1 μM was 75 µL/min/mg.

Q: Which microsomal CLint at 1 μM [1] does the source give for Cc1ccsc1C1=Nc2cc(C(=O)NN3CCCCC3)ccc2Sc2ccccc21 [drawing 1730] here?
A: Its microsomal CLint at 1 μM is 385 µL/min/mg.

Q: And the microsomal CLint at 1 μM [2]?
A: The microsomal CLint at 1 μM was 50 µL/min/mg.

Q: And the microsomal CLint at 1 μM [3]?
A: Its microsomal CLint at 1 μM is 304 µL/min/mg.

Q: What does the source list for CC(C)CCNC(=O)c1ccc2c(c1)N=C(c1cccc(Cl)c1)c1ccccc1S2 [drawing 1665]?
A: microsomal CLint at 1 μM [1]: 249 µL/min/mg; microsomal CLint at 1 μM [2]: 25 µL/min/mg; microsomal CLint at 1 μM [3]: 77 µL/min/mg

Q: With O=C(NN1CCCCC1)c1ccc2c(c1)N=C(c1ccc(Cl)cn1)c1ccccc1S2 [drawing 1786] as the molecule, how does the microsomal CLint at 1 μM [1] read?
A: Its microsomal CLint at 1 μM is 416 µL/min/mg.

Q: And the microsomal CLint at 1 μM [2]?
A: Its microsomal CLint at 1 μM is 64 µL/min/mg.

Q: And the microsomal CLint at 1 μM [3]?
A: The microsomal CLint at 1 μM was 290 µL/min/mg.

Q: With O=C(NC1CCCCC1)c1ccc2c(c1)N=C(c1ccc(Cl)cc1)c1ccccc1S2 [drawing 1712] as the molecule, how does the microsomal CLint at 1 μM [1] read?
A: Its microsomal CLint at 1 μM is 78 µL/min/mg.

Q: And the microsomal CLint at 1 μM [2]?
A: Its microsomal CLint at 1 μM is 8 µL/min/mg.

Q: And the microsomal CLint at 1 μM [3]?
A: The microsomal CLint at 1 μM was 43 µL/min/mg.

Q: With O=C(NN1CCCCC1)c1ccc2c(c1)N=C(C1CCCCC1)c1ccccc1S2 [drawing 1695] as the molecule, how does the microsomal CLint at 1 μM [1] read?
A: The microsomal CLint at 1 μM was 349 µL/min/mg.

Q: For O=C(NCc1cccs1)c1ccc2c(c1)N=C(c1ccc(Cl)s1)c1ccccc1S2 [drawing 1723], which microsomal CLint at 1 μM [1] is on record?
A: The microsomal CLint at 1 μM was 184 µL/min/mg.

Q: What about the microsomal CLint at 1 μM [2] of the same molecule?
A: The microsomal CLint at 1 μM was 30 µL/min/mg.

Q: What about the microsomal CLint at 1 μM [3] of the same molecule?
A: The microsomal CLint at 1 μM was 97 µL/min/mg.

Q: Which results are given for CCCCNC(=O)c1ccc2c(c1)N=C(c1ccc(Cl)s1)c1ccccc1S2 [drawing 1669]?
A: microsomal CLint at 1 μM [1]: 266 µL/min/mg; microsomal CLint at 1 μM [2]: 32 µL/min/mg; microsomal CLint at 1 μM [3]: 80 µL/min/mg

Q: With O=C(NCc1cccs1)c1ccc2c(c1)N=C(c1cccc(Cl)c1)c1ccccc1S2 [drawing 1733] as the molecule, how does the microsomal CLint at 1 μM [1] read?
A: The microsomal CLint at 1 μM was 187 µL/min/mg.

Q: And the microsomal CLint at 1 μM [2]?
A: The microsomal CLint at 1 μM was 32 µL/min/mg.

Q: What about the microsomal CLint at 1 μM [3] of the same molecule?
A: Its microsomal CLint at 1 μM is 99 µL/min/mg.

Q: With O=C(NC1CCCCC1)c1ccc2c(c1)N=C(c1ccc(F)cc1)c1ccccc1S2 [drawing 1683] as the molecule, how does the microsomal CLint at 1 μM [1] read?
A: Its microsomal CLint at 1 μM is 62 µL/min/mg.

Q: What about the microsomal CLint at 1 μM [2] of the same molecule?
A: Its microsomal CLint at 1 μM is 31 µL/min/mg.

Q: And the microsomal CLint at 1 μM [3]?
A: The microsomal CLint at 1 μM was 108 µL/min/mg.

Q: Which microsomal CLint at 1 μM [1] does the source give for O=C(NCc1ccccn1)c1ccc2c(c1)N=C(c1ccc(Cl)cc1)c1ccccc1S2 [drawing 1760] here?
A: Its microsomal CLint at 1 μM is 73 µL/min/mg.

Q: And the microsomal CLint at 1 μM [2]?
A: The microsomal CLint at 1 μM was 37 µL/min/mg.

Q: What about the microsomal CLint at 1 μM [3] of the same molecule?
A: Its microsomal CLint at 1 μM is 46 µL/min/mg.

Q: For O=C(NCCc1cccnc1)c1ccc2c(c1)N=C(c1ccc(Cl)c(Cl)c1)c1ccccc1S2 [drawing 1668], which microsomal CLint at 1 μM [1] is on record?
A: The microsomal CLint at 1 μM was 82 µL/min/mg.

Q: What about the microsomal CLint at 1 μM [2] of the same molecule?
A: Its microsomal CLint at 1 μM is 41 µL/min/mg.

Q: And the microsomal CLint at 1 μM [3]?
A: The microsomal CLint at 1 μM was 65 µL/min/mg.

Q: For O=C(NCc1cccs1)c1ccc2c(c1)N=C(c1ccc(F)cc1)c1ccccc1S2 [drawing 1659], which microsomal CLint at 1 μM [1] is on record?
A: The microsomal CLint at 1 μM was 171 µL/min/mg.

Q: What about the microsomal CLint at 1 μM [2] of the same molecule?
A: The microsomal CLint at 1 μM was 52 µL/min/mg.

Q: What about the microsomal CLint at 1 μM [3] of the same molecule?
A: Its microsomal CLint at 1 μM is 171 µL/min/mg.

Q: Which microsomal CLint at 1 μM [1] does the source give for O=C(NN1CCCCCC1)c1ccc2c(c1)N=C(c1cccc(Cl)c1)c1ccccc1S2 [drawing 1689] here?
A: The microsomal CLint at 1 μM was 124 µL/min/mg.

Q: And the microsomal CLint at 1 μM [2]?
A: Its microsomal CLint at 1 μM is 59 µL/min/mg.

Q: What about the microsomal CLint at 1 μM [3] of the same molecule?
A: The microsomal CLint at 1 μM was 162 µL/min/mg.

Q: For O=C(NN1CCCCCC1)c1ccc2c(c1)N=C(c1ccc(Cl)s1)c1ccccc1S2 [drawing 1687], which microsomal CLint at 1 μM [1] is on record?
A: The microsomal CLint at 1 μM was 360 µL/min/mg.

Q: What about the microsomal CLint at 1 μM [2] of the same molecule?
A: The microsomal CLint at 1 μM was 122 µL/min/mg.

Q: And the microsomal CLint at 1 μM [3]?
A: The microsomal CLint at 1 μM was 186 µL/min/mg.

Q: With CC(C)CNC(=O)c1ccc2c(c1)N=C(c1ccc(Cl)c(Cl)c1)c1ccccc1S2 [drawing 1671] as the molecule, how does the microsomal CLint at 1 μM [1] read?
A: The microsomal CLint at 1 μM was 107 µL/min/mg.

Q: And the microsomal CLint at 1 μM [2]?
A: The microsomal CLint at 1 μM was 4 µL/min/mg.

Q: And the microsomal CLint at 1 μM [3]?
A: The microsomal CLint at 1 μM was 26 µL/min/mg.

Q: With O=C(NCc1ccco1)c1ccc2c(c1)N=C(c1ccc(Cl)c(Cl)c1)c1ccccc1S2 [drawing 1666] as the molecule, how does the microsomal CLint at 1 μM [1] read?
A: The microsomal CLint at 1 μM was 27 µL/min/mg.

Q: And the microsomal CLint at 1 μM [2]?
A: Its microsomal CLint at 1 μM is 21 µL/min/mg.

Q: What about the microsomal CLint at 1 μM [3] of the same molecule?
A: The microsomal CLint at 1 μM was 25 µL/min/mg.

Q: What does the source list for O=C(NCc1cccnc1)c1ccc2c(c1)N=C(c1ccc(Cl)cc1)c1ccccc1S2 [drawing 1756]?
A: microsomal CLint at 1 μM [1]: 92 µL/min/mg; microsomal CLint at 1 μM [2]: 41 µL/min/mg; microsomal CLint at 1 μM [3]: 80 µL/min/mg

Q: With CC(C)CCNC(=O)c1ccc2c(c1)N=C(c1ccccn1)c1ccccc1S2 [drawing 1784] as the molecule, how does the microsomal CLint at 1 μM [1] read?
A: Its microsomal CLint at 1 μM is 68 µL/min/mg.

Q: With C[C@@H]1CCC[C@H](C)N1NC(=O)c1ccc2c(c1)N=C(c1cccc(F)c1)c1ccccc1S2 [drawing 1758] as the molecule, how does the microsomal CLint at 1 μM [1] read?
A: Its microsomal CLint at 1 μM is 659 µL/min/mg.

Q: And the microsomal CLint at 1 μM [2]?
A: The microsomal CLint at 1 μM was 513 µL/min/mg.

Q: What about the microsomal CLint at 1 μM [3] of the same molecule?
A: The microsomal CLint at 1 μM was 318 µL/min/mg.

Q: For O=C(NCc1cccc(Cl)c1)c1ccc2c(c1)N=C(c1ccc(Cl)cc1)c1cc(F)ccc1S2 [drawing 1686], which microsomal CLint at 1 μM [1] is on record?
A: Its microsomal CLint at 1 μM is 96 µL/min/mg.

Q: What about the microsomal CLint at 1 μM [2] of the same molecule?
A: The microsomal CLint at 1 μM was 3 µL/min/mg.

Q: What about the microsomal CLint at 1 μM [3] of the same molecule?
A: Its microsomal CLint at 1 μM is 48 µL/min/mg.

Q: Which microsomal CLint at 1 μM [1] does the source give for O=C(NCc1ccco1)c1ccc2c(c1)N=C(c1ccc(Cl)s1)c1ccccc1S2 [drawing 1656] here?
A: Its microsomal CLint at 1 μM is 127 µL/min/mg.

Q: What about the microsomal CLint at 1 μM [2] of the same molecule?
A: Its microsomal CLint at 1 μM is 42 µL/min/mg.

Q: And the microsomal CLint at 1 μM [3]?
A: Its microsomal CLint at 1 μM is 98 µL/min/mg.

Q: What does the source list for O=C(NCc1ccccc1)c1ccc2c(c1)N=C(c1cccc(Br)c1)c1ccccc1S2?
A: microsomal CLint at 1 μM [1]: 566 µL/min/mg; microsomal CLint at 1 μM [2]: 4 µL/min/mg; microsomal CLint at 1 μM [3]: 69 µL/min/mg
